Measured values as given in the supplement of paper PMC10883282.
± gives the standard deviation of the averaged measurements.

Tested on: RD
Experiment: relative viability vs DMSO control (72 h) (fraction); higher = more viable cells
Method in brief: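 Relative viability is percent growth read by ATPLite and averaged over up to triplicate wells. Sarcoma cells were seeded in 384-well plates to reach 80–90% confluence and given 2.5 µl of serially diluted compound after 24 h, from source plates of 10 mM to 0.0002 mM. Incubation lasted 72 h at 37 °C, 5% CO2, with 0.1% DMSO vehicle and a 5 µM positive control, and the data were rescaled so 1 equals full and 0 equals none.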

SMILES | relative viability (0.00017 µM) | relative viability (0.00051 µM) | relative viability (0.00152 µM) | relative viability (0.00457 µM) | relative viability (0.01372 µM) | relative viability (0.04115 µM) | relative viability (0.1235 µM) | relative viability (0.3704 µM) | relative viability (1.111 µM) | relative viability (3.333 µM) | relative viability (10 µM)
CCN1CCN(Cc2ccc(Nc3ncc(F)c(-c4cc(F)c5nc(C)n(C(C)C)c5c4)n3)nc2)CC1 [Abemaciclib] | 1.12 ± 0.06 | 1.14 ± 0.056 | 1.09 ± 0.05 | 1.11 ± 0.054 | 1.1 ± 0.059 | 1.07 ± 0.081 | 1.06 ± 0.078 | 1.07 ± 0.036 | 1.1 ± 0.072 | 1.04 ± 0.049 | 0.863 ± 0.039
CC(C)NC(=O)C1CCC(n2c(NC(=O)c3ccc(F)cc3)nc3ccc(CN4CCC(C(C)(C)O)CC4)cc32)CC1 (stereo not drawn) [Belizatinib] | 1.1 ± 0.05 | 1.09 ± 0.06 | 1.08 ± 0.079 | 1.09 ± 0.02 | 1.09 ± 0.041 | 1.09 ± 0.025 | 1 ± 0.014 | 0.844 ± 0.058 | 0.456 ± 0.027 | 0.268 ± 0.0066 | 0.122 ± 0.011
CC[C@H](Nc1ncnc2[nH]cnc12)c1nc2cccc(F)c2c(=O)n1-c1ccccc1 [Idelalisib] | 1.08 ± 0.039 | 1.11 ± 0.035 | 1.12 ± 0.06 | 1.13 ± 0.042 | 1.13 ± 0.036 | 1.13 ± 0.039 | 1.1 ± 0.076 | 1.12 ± 0.062 | 1.1 ± 0.066 | 1.04 ± 0.06 | 0.927 ± 0.029
CC(C)(C)c1cc(NC(=O)Nc2ccc(-c3cn4c(n3)sc3cc(OCCN5CCOCC5)ccc34)cc2)no1 [Quizartinib] | 1.08 ± 0.04 | 1.07 ± 0.036 | 1.08 ± 0.035 | 1.08 ± 0.06 | 1.07 ± 0.035 | 1.06 ± 0.025 | 1.07 ± 0.05 | 1.05 ± 0.055 | 1.04 ± 0.025 | 0.942 ± 0.1 | 0.922 ± 0.065
Cc1cnc(Nc2ccc(OCCN3CCCC3)cc2)nc1Nc1cccc(S(=O)(=O)NC(C)(C)C)c1 [Fedratinib] | 1.07 ± 0.031 | 1.09 ± 0.03 | 1.12 ± 0.042 | 1.13 ± 0.048 | 1.12 ± 0.064 | 1.14 ± 0.058 | 1.09 ± 0.09 | 0.785 ± 0.066 | 0.445 ± 0.025 | 0.0678 ± 0.011 | 0.00303 ± 0.0004
CC1(C)CNc2cc(NC(=O)c3cccnc3NCc3ccncc3)ccc21 [Motesanib] | 0.967 ± 0.013 | 0.964 ± 0.041 | 0.973 ± 0.046 | 0.96 ± 0.046 | 0.965 ± 0.04 | 0.989 ± 0.051 | 0.962 ± 0.032 | 0.975 ± 0.028 | 0.996 ± 0.056 | 1.03 ± 0.034 | 0.987 ± 0.066
Nc1cc(C(F)(F)F)c(-c2cc(N3CCOCC3)nc(N3CCOCC3)n2)cn1 [Buparlisib] | 1.09 ± 0.015 | 1.06 ± 0.025 | 1.09 ± 0.055 | 1.08 ± 0.05 | 1.07 ± 0.028 | 1.09 ± 0.045 | 1 ± 0.046 | 0.868 ± 0.045 | 0.428 ± 0.042 | 0.133 ± 0.011 | 0.126 ± 0.015
Cc1cc(C)c(/C=C2\C(=O)Nc3ccccc32)[nH]1 [Semaxanib] | 1.07 ± 0.053 | 1.05 ± 0.042 | 1.06 ± 0.035 | 1.08 ± 0.016 | 1.08 ± 0.028 | 1.088 ± 0.0067 | 1.09 ± 0.037 | 1.09 ± 0.02 | 1.08 ± 0.023 | 1.06 ± 0.046 | 1 ± 0.041
CCc1cc2c(cc1N1CCC(N3CCOCC3)CC1)C(C)(C)c1[nH]c3cc(C#N)ccc3c1C2=O [Alectinib] | 1.12 ± 0.056 | 1.09 ± 0.022 | 1.09 ± 0.051 | 1.1 ± 0.044 | 1.11 ± 0.049 | 1.11 ± 0.038 | 1.13 ± 0.045 | 1.11 ± 0.044 | 1.09 ± 0.024 | 1.054 ± 0.0068 | 1.05 ± 0.037
Cn1cnc2c(F)c(Nc3ccc(Br)cc3F)c(C(=O)NOCCO)cc21 [Binimetinib] | 1.01 ± 0.049 | 1 ± 0.04 | 0.978 ± 0.037 | 0.89 ± 0.054 | 0.798 ± 0.05 | 0.746 ± 0.028 | 0.677 ± 0.016 | 0.627 ± 0.036 | 0.588 ± 0.015 | 0.534 ± 0.035 | 0.507 ± 0.012
C=CC(=O)Nc1cccc(Oc2nc(Nc3ccc(N4CCN(C)CC4)cc3)nc3ccsc23)c1 [Olmutinib] | 1.02 ± 0.051 | 1.04 ± 0.045 | 1.03 ± 0.046 | 1.04 ± 0.032 | 1.03 ± 0.068 | 1.03 ± 0.056 | 1.04 ± 0.051 | 1.07 ± 0.058 | 1.01 ± 0.051 | 0.892 ± 0.08 | 0.174 ± 0.025
CN1CCN(c2ccc3nc(-c4c(N)c5c(F)cccc5[nH]c4=O)[nH]c3c2)CC1 [Dovitinib] | 0.963 ± 0.05 | 0.983 ± 0.064 | 0.991 ± 0.072 | 0.985 ± 0.053 | 0.978 ± 0.099 | 0.995 ± 0.074 | 0.998 ± 0.071 | 0.99 ± 0.072 | 0.812 ± 0.073 | 0.632 ± 0.05 | 0.113 ± 0.035
O=C(Cc1ccc(-c2ccc(OCCN3CCOCC3)cc2)cn1)NCc1ccccc1 [KX2-391] | 1.03 ± 0.04 | 1.07 ± 0.055 | 1.08 ± 0.04 | 1.07 ± 0.066 | 1.02 ± 0.022 | 0.633 ± 0.022 | 0.346 ± 0.077 | 0.296 ± 0.015 | 0.304 ± 0.0065 | 0.308 ± 0.027 | 0.286 ± 0.034
C[C@@H]1COCCN1c1cc(-c2ccnn2C)c2ccnc(-c3ccn[nH]3)c2n1 | 1.08 ± 0.059 | 1.09 ± 0.027 | 1.09 ± 0.083 | 1.12 ± 0.065 | 1.1 ± 0.037 | 1.08 ± 0.046 | 0.93 ± 0.03 | 0.627 ± 0.025 | 0.378 ± 0.018 | 0.23 ± 0.017 | 0.188 ± 0.011
CNC(=O)c1cc(Oc2ccc(NC(=O)Nc3ccc(Cl)c(C(F)(F)F)c3)c(F)c2)ccn1 [Regorafenib] | 1.06 ± 0.017 | 1.11 ± 0.028 | 1.13 ± 0.052 | 1.14 ± 0.089 | 1.13 ± 0.075 | 1.14 ± 0.063 | 1.12 ± 0.04 | 1.01 ± 0.058 | 0.877 ± 0.069 | 0.787 ± 0.05 | 0.558 ± 0.048
Cc1ccc(NC(=O)c2ccc(CN3CCN(C)CC3)cc2)cc1Nc1nc(-c2cccnc2)cs1 [Masitinib] | 0.967 ± 0.042 | 0.962 ± 0.054 | 0.995 ± 0.039 | 1.03 ± 0.091 | 1.01 ± 0.096 | 0.995 ± 0.091 | 0.995 ± 0.1 | 0.976 ± 0.1 | 0.872 ± 0.074 | 0.587 ± 0.05 | 0.13 ± 0.02
CNC(=O)c1ccc(-c2cnc3ncc(Cc4ccc5ncccc5c4)n3n2)cc1F [Capmatinib] | 1.11 ± 0.025 | 1.1 ± 0.053 | 1.13 ± 0.037 | 1.15 ± 0.065 | 1.12 ± 0.028 | 1.12 ± 0.042 | 1.13 ± 0.077 | 1.14 ± 0.053 | 1.15 ± 0.072 | 1.13 ± 0.12 | 1.1 ± 0.1
CCCS(=O)(=O)Nc1ccc(F)c(C(=O)c2c[nH]c3ncc(-c4ccc(Cl)cc4)cc23)c1F [Vemurafenib] | 1.14 ± 0.071 | 1.12 ± 0.08 | 1.14 ± 0.073 | 1.13 ± 0.073 | 1.12 ± 0.059 | 1.13 ± 0.061 | 1.11 ± 0.053 | 1.12 ± 0.053 | 1.14 ± 0.07 | 1.11 ± 0.036 | 0.785 ± 0.079
